Reference: PubChem BioAssay (NCI)
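Five concentrations, 48 hours, 96-well plates. At the TGI there is no net growth.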

How the values were obtained:
Test in all cases: DTP human tumour cell line panel, 48 h
[1] = tested on: U251 CNS
[2] = tested on: SW-620 colon
[3] = tested on: LOX IMVI melanoma
[4] = tested on: SK-MEL-5 melanoma
[5] = tested on: OVCAR-8 ovarian
[6] = tested on: CAKI-1 renal
[7] = tested on: SK-MEL-28 melanoma
[8] = tested on: KM20L2 colon
[9] = tested on: HL-60(TB) leukemia
[10] = tested on: HCC-2998 colon
[11] = tested on: CCRF-CEM leukemia
[12] = tested on: SF-539 CNS
[13] = tested on: SR leukemia
[14] = tested on: SK-OV-3 ovarian
[15] = tested on: TK-10 renal
[16] = tested on: UO-31 renal
[17] = tested on: UACC-62 melanoma
[18] = tested on: HOP-92 NSCLC
[19] = tested on: DMS 114 small cell lung
[20] = tested on: OVCAR-4 ovarian
[21] = tested on: SN12C renal
[22] = tested on: HOP-62 NSCLC
[23] = tested on: K-562 leukemia
[24] = tested on: DMS 273 small cell lung
[25] = tested on: XF 498 CNS
[26] = tested on: DLD-1 colon
[27] = tested on: ACHN renal
[28] = tested on: RPMI-8226 leukemia
[29] = tested on: MOLT-4 leukemia
[30] = tested on: COLO 205 colon
[31] = tested on: NCI-H226 lung
[32] = tested on: HT29 colon
[33] = tested on: SK-MEL-2 melanoma
[34] = tested on: A549 NSCLC
[35] = tested on: 786-0 renal
[36] = tested on: HCT-15 colon
[37] = tested on: SNB-19 CNS
[38] = tested on: RXF-631 renal
[39] = tested on: KM12 colon
[40] = tested on: IGROV1 ovarian
[41] = tested on: M19-MEL melanoma
[42] = tested on: HCT-116 colon
[43] = tested on: OVCAR-5 ovarian
[44] = tested on: SF-268 CNS
[45] = tested on: LXFL 529 NSCLC
[46] = tested on: OVCAR-3 ovarian
[47] = tested on: NCI-H460 lung
[48] = tested on: UACC-257 melanoma
[49] = tested on: SNB-75 CNS
[50] = tested on: MALME-3M melanoma
[51] = tested on: SNB-78 CNS
[52] = tested on: HOP-18 NSCLC
[53] = tested on: M14 melanoma
[54] = tested on: NCI-H23 lung
[55] = tested on: SF-295 CNS
[56] = tested on: EKVX NSCLC
[57] = tested on: A498 renal
[58] = tested on: NCI-H522 lung
[59] = tested on: RXF 393 renal

Compound: Cc1csc2nc(-c3ccncc3)cn12
- TGI [1]: > 72.6 µM
- TGI [2]: > 54.2 µM
- TGI [3]: > 61.5 µM
- TGI [4]: > 100 µM
- TGI [5]: > 100 µM
- TGI [6]: > 100 µM
- TGI [7]: > 100 µM
- TGI [8]: > 100 µM
- TGI [9]: > 52.4 µM
- TGI [10]: > 100 µM
- TGI [11]: > 61 µM
- TGI [12]: > 65.9 µM
- TGI [13]: 51 µM
- TGI [14]: > 100 µM
- TGI [15]: > 100 µM
- TGI [16]: > 100 µM
- TGI [17]: > 100 µM
- TGI [18]: > 100 µM
- TGI [19]: > 60.9 µM
- TGI [20]: > 100 µM
- TGI [21]: > 100 µM
- TGI [22]: > 100 µM
- TGI [23]: > 65.4 µM
- TGI [24]: 41 µM
- TGI [25]: > 100 µM
- TGI [26]: > 100 µM
- TGI [27]: > 100 µM
- TGI [28]: > 64.1 µM
- TGI [29]: > 100 µM
- TGI [30]: > 79.7 µM
- TGI [31]: > 100 µM
- TGI [32]: > 100 µM
- TGI [33]: > 100 µM
- TGI [34]: > 100 µM
- TGI [35]: 34.5 µM
- TGI [36]: > 56.7 µM
- TGI [37]: > 100 µM
- TGI [38]: > 100 µM
- TGI [39]: > 100 µM
- TGI [40]: > 100 µM
- TGI [41]: > 100 µM
- TGI [42]: > 59.3 µM
- TGI [43]: > 100 µM
- TGI [44]: > 100 µM
- TGI [45]: > 76.5 µM
- TGI [46]: > 100 µM
- TGI [47]: > 61.4 µM
- TGI [48]: > 100 µM
- TGI [49]: > 100 µM
- TGI [50]: > 100 µM
- TGI [51]: > 100 µM
- TGI [52]: > 100 µM
- TGI [53]: > 100 µM
- TGI [54]: > 100 µM
- TGI [55]: > 100 µM
- TGI [56]: > 100 µM
- TGI [57]: > 100 µM
- TGI [58]: > 100 µM

Compound: Cc1ccc(C2CC(c3cccc([N+](=O)[O-])c3)=Nc3ccccc3S2)cc1 (configuration not stated)
- TGI [1]: > 79.5 µM
- TGI [2]: 46.2 µM
- TGI [3]: 51.9 µM
- TGI [4]: > 72.2 µM
- TGI [5]: > 71.4 µM
- TGI [6]: > 100 µM
- TGI [7]: > 100 µM
- TGI [8]: > 100 µM
- TGI [9]: 47.5 µM
- TGI [10]: > 100 µM
- TGI [11]: > 81.8 µM
- TGI [12]: > 96.3 µM
- TGI [13]: > 100 µM
- TGI [14]: > 100 µM
- TGI [15]: > 100 µM
- TGI [16]: > 83.6 µM
- TGI [17]: > 100 µM
- TGI [18]: 52.2 µM
- TGI [59]: > 89.3 µM
- TGI [19]: 57.2 µM
- TGI [20]: > 100 µM
- TGI [21]: > 90.4 µM
- TGI [22]: > 100 µM
- TGI [23]: 77.2 µM
- TGI [24]: > 100 µM
- TGI [25]: > 100 µM
- TGI [26]: > 65 µM
- TGI [27]: > 100 µM
- TGI [28]: 41.7 µM
- TGI [29]: > 81.8 µM
- TGI [30]: > 100 µM
- TGI [31]: > 100 µM
- TGI [32]: 98.1 µM
- TGI [33]: > 100 µM
- TGI [34]: > 100 µM
- TGI [35]: 51.9 µM
- TGI [36]: > 100 µM
- TGI [37]: > 100 µM
- TGI [38]: > 100 µM
- TGI [39]: 46.1 µM
- TGI [40]: > 100 µM
- TGI [41]: > 100 µM
- TGI [42]: 27.1 µM
- TGI [43]: > 100 µM
- TGI [44]: 99.1 µM
- TGI [45]: > 100 µM
- TGI [46]: > 74.7 µM
- TGI [47]: > 100 µM
- TGI [48]: > 100 µM
- TGI [49]: > 96.1 µM
- TGI [50]: > 100 µM
- TGI [51]: > 31.6 µM
- TGI [52]: > 100 µM
- TGI [53]: > 100 µM
- TGI [54]: > 76.4 µM
- TGI [55]: > 100 µM
- TGI [56]: > 100 µM
- TGI [57]: > 100 µM
- TGI [58]: 64.6 µM
